In patent US9012489B2, “Phenyl-3-aza-bicyclo[3.1.0]hex-3-yl-methanones and the use thereof as medicament” (Boehringer Ingelheim International GmbH, priority 2011, dated 2015):

Target: T1, GlyT1 transporter (Homo sapiens, UniProt P48067)
T1 construct: endogenously expressing the GlyT1 transporter; host or cells: SK-N-MC human neuroblastoma cells
T1 sequence (P48067 1-706): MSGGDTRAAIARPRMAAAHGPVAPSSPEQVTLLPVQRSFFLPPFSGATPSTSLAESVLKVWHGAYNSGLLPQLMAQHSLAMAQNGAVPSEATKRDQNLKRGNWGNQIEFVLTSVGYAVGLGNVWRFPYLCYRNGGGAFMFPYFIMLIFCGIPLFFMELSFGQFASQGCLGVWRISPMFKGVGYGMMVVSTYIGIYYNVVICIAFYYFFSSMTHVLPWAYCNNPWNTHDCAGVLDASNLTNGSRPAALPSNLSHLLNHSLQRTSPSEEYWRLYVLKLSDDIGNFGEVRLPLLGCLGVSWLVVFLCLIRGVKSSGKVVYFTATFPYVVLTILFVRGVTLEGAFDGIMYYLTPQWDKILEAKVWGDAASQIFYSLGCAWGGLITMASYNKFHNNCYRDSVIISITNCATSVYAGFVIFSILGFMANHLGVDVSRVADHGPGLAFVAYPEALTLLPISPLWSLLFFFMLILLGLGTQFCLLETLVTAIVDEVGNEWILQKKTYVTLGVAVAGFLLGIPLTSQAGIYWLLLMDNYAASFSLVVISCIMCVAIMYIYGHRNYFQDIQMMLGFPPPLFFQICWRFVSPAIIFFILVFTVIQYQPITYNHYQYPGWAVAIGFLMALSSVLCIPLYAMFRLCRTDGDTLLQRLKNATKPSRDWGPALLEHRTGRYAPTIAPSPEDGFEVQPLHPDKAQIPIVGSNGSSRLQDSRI
Test: GlyT1 assay: 3H-glycine uptake into SK-N-MC cells (Cytostar-T format)
Assay type: cell-based
Conditions: glycine uptake in human SK-N-MC cells endogenously expressing GlyT1; 500 nM glycine, 1% DMSO, signal recorded over 60 min
Outline: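 Uptake slopes, measured over 60 min from the linear kinetic range, give IC50 from 8 compound concentrations, with 10 μM RG-1678 setting background. Substrate is 500 nM glycine (250 nM ³H, 250 nM unlabelled) in HBSS/5 mM alanine, 1% DMSO, after roughly 5-10 min compound preincubation. Cells: confluent SK-N-MC endogenously expressing human GlyT1.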

IC50 [nM]	Compound
916	C[C@H](Oc1ccc(-c2ncco2)cc1C(=O)N1CC2CC2(c2noc(C(F)(F)F)n2)C1)C(F)(F)F (mixture of isomers) [Example 100, [5-Oxazol-2-yl-2-(2,2,2-trifluoro-1-methyl-ethoxy)-phenyl]-[1-(5-trifluoromethyl-[1,2,4]oxadiazol-3-yl)-3-aza-bicyclo[3.1.0]hex-3-yl]-methanone]
15	Cc1nc(C23CC2CN(C(=O)c2cc(S(C)(=O)=O)ccc2O[C@H](C)C(F)(F)F)C3)no1 (mixture of isomers) [Example 101, [5-Methanesulfonyl-2-(2,2,2-trifluoro-1-methyl-ethoxy)-phenyl]-[1-(5-methyl-[1,2,4]oxadiazol-3-yl)-3-aza-bicyclo[3.1.0]hex-3-yl]-methanone]
18	CCS(=O)(=O)c1ccc(O[C@@H](C)C(F)(F)F)c(C(=O)N2CC3CC3(c3cc(C(F)(F)F)on3)C2)c1 (mixture of isomers) [Example 102, [5-Ethanesulfonyl-2-(2,2,2-trifluoro-1-methyl-ethoxy)-phenyl]-[1-(5-trifluoromethyl-isoxazol-3-yl)-3-aza-bicyclo[3.1.0]hex-3-yl]-methanone]
7	CCS(=O)(=O)c1ccc(O[C@H](C)C(F)(F)F)c(C(=O)N2CC3CC3(c3cc(C(F)(F)F)on3)C2)c1 (mixture of isomers) [Example 105, [5-Ethanesulfonyl-2-(2,2,2-trifluoro-1-methyl-ethoxy)-phenyl]-[1-(5-trifluoromethyl-isoxazol-3-yl)-3-aza-bicyclo[3.1.0]hex-3-yl]-methanone]
10	Cc1conc1C12CC1CN(C(=O)c1cc(S(C)(=O)=O)ccc1O[C@@H](C)C(F)(F)F)C2 (mixture of isomers) [Example 108, [5-Methanesulfonyl-2-(2,2,2-trifluoro-1-methyl-ethoxy)-phenyl]-[1-(4-methyl-isoxazol-3-yl)-3-aza-bicyclo[3.1.0]hex-3-yl]-methanone]
45	C[C@H](Oc1ccc(S(C)(=O)=O)cc1C(=O)N1CC2CC2(c2nocc2C(F)(F)F)C1)C(F)(F)F (mixture of isomers) [Example 109, [5-Methanesulfonyl-2-(2,2,2-trifluoro-1-methyl-ethoxy)-phenyl]-[1-(4-trifluoromethyl-isoxazol-3-yl)-3-aza-bicyclo[3.1.0]hex-3-yl]-methanone]
1130	CC(C)Oc1ccc(S(C)(=O)=O)cc1C(=O)N1CC2CC2(c2nc(C(F)(F)F)co2)C1 (racemic) [Example 110, (2-Isopropoxy-5-methanesulfonyl-phenyl)-[1-(4-trifluoromethyl-oxazol-2-yl)-3-aza-bicyclo[3.1.0]hex-3-yl]-methanone]
216	C[C@@H](Oc1ccc(S(C)(=O)=O)cc1C(=O)N1CC2CC2(c2nc(C(F)(F)F)co2)C1)C(F)(F)F (mixture of isomers) [Example 113, [5-Methanesulfonyl-2-(2,2,2-trifluoro-1-methyl-ethoxy)-phenyl]-[1-(4-trifluoromethyl-oxazol-2-yl)-3-aza-bicyclo[3.1.0]hex-3-yl]-methanone]
10	COC1(c2nc(C34CC3CN(C(=O)c3cc(S(C)(=O)=O)ccc3O[C@@H](C)C(F)(F)F)C4)no2)CC1 (mixture of isomers) [Example 116, [5-Methanesulfonyl-2-(2,2,2-trifluoro-1-methyl-ethoxy)-phenyl]-{1-[5-(1-methoxy-cyclopropyl)-[1,2,4]oxadiazol-3-yl]-3-aza-bicyclo[3.1.0]hex-3-yl}-methanone]
11	COC1(c2nc(C34CC3CN(C(=O)c3cc(S(C)(=O)=O)ccc3O[C@H](C)C(F)(F)F)C4)no2)CC1 (mixture of isomers) [Example 119, [5-Methanesulfonyl-2-(2,2,2-trifluoro-1-methyl-ethoxy)-phenyl]-{1-[5-(1-methoxy-cyclopropyl)-[1,2,4]oxadiazol-3-yl]-3-aza-bicyclo[3.1.0]hex-3-yl}-methanone]
21	C[C@@H](Oc1ccc(S(C)(=O)=O)cc1C(=O)N1CC2CC2(c2nnc(C(F)(F)F)o2)C1)C(F)(F)F (mixture of isomers) [Example 122, [5-Methanesulfonyl-2-(2,2,2-trifluoro-1-methyl-ethoxy)-phenyl]-[1-(5-trifluoromethyl-[1,3,4]oxadiazol-2-yl)-3-aza-bicyclo[3.1.0]hex-3-yl]-methanone]
31	C[C@H](Oc1ccc(S(C)(=O)=O)cc1C(=O)N1CC2CC2(c2nnc(C(F)(F)F)o2)C1)C(F)(F)F (mixture of isomers) [Example 125, [5-Methanesulfonyl-2-(2,2,2-trifluoro-1-methyl-ethoxy)-phenyl]-[1-(5-trifluoromethyl-[1,3,4]oxadiazol-2-yl)-3-aza-bicyclo[3.1.0]hex-3-yl]-methanone]
6	C[C@@H](Oc1ccc(S(C)(=O)=O)cc1C(=O)N1CC2CC2(c2ncc(C(F)(F)F)o2)C1)C(F)(F)F (mixture of isomers) [Example 128, [5-Methanesulfonyl-2-(2,2,2-trifluoro-1-methyl-ethoxy)-phenyl]-[1-(5-trifluoromethyl-oxazol-2-yl)-3-aza-bicyclo[3.1.0]hex-3-yl]-methanone]
19	C[C@H](Oc1ccc(S(C)(=O)=O)cc1C(=O)N1CC2CC2(c2ncc(C(F)(F)F)o2)C1)C(F)(F)F (mixture of isomers) [Example 131, [5-Methanesulfonyl-2-(2,2,2-trifluoro-1-methyl-ethoxy)-phenyl]-[1-(5-trifluoromethyl-oxazol-2-yl)-3-aza-bicyclo[3.1.0]hex-3-yl]-methanone]
8	C[C@H](Oc1ccc(S(C)(=O)=O)cc1C(=O)N1CC2CC2(c2noc(C3(C)CC3)n2)C1)C(F)(F)F (mixture of isomers) [Example 134, [5-Methanesulfonyl-2-(2,2,2-trifluoro-1-methyl-ethoxy)-phenyl]-{1-[5-(1-methyl-cyclopropyl)-[1,2,4]oxadiazol-3-yl]-3-aza-bicyclo[3.1.0]hex-3-yl}-methanone]
7	C[C@@H](Oc1ccc(S(C)(=O)=O)cc1C(=O)N1CC2CC2(c2noc(C3(C)CC3)n2)C1)C(F)(F)F (mixture of isomers) [Example 135, [5-Methanesulfonyl-2-(2,2,2-trifluoro-1-methyl-ethoxy)-phenyl]-{1-[5-(1-methyl-cyclopropyl)-[1,2,4]oxadiazol-3-yl]-3-aza-bicyclo[3.1.0]hex-3-yl}-methanone]
261	CS(=O)(=O)c1ccc(O[C@@H]2CCOC2)c(C(=O)N2CC3CC3(c3noc(C(F)(F)F)n3)C2)c1 (mixture of isomers) [Example 138, [5-Methanesulfonyl-2-(tetrahydro-furan-3-yloxy)-phenyl]-[1-(5-trifluoromethyl-[1,2,4]oxadiazol-3-yl)-3-aza-bicyclo[3.1.0]hex-3-yl]-methanone]
764	CS(=O)(=O)c1ccc(-n2ccc(C(F)(F)F)n2)c(C(=O)N2CC3CC3(c3noc(C(F)(F)F)n3)C2)c1 (racemic) [Example 141, [5-Methanesulfonyl-2-(3-trifluoromethyl-pyrazol-1-yl)-phenyl]-[1-(5-trifluoromethyl-[1,2,4]oxadiazol-3-yl)-3-aza-bicyclo[3.1.0]hex-3-yl]-methanone]
7	C[C@@H](Oc1ccc(S(C)(=O)=O)cc1C(=O)N1CC2CC2(c2nc(C3CC3)no2)C1)C(F)(F)F (mixture of isomers) [Example 145, [1-(3-Cyclopropyl-[1,2,4]oxadiazol-5-yl)-3-aza-bicyclo[3.1.0]hex-3-yl]-[5-methanesulfonyl-2-(2,2,2-trifluoro-1-methyl-ethoxy)-phenyl]-methanone]
9	C[C@@H](Oc1ccc(S(C)(=O)=O)cc1C(=O)N1CC2CC2(c2nnc(C3CC3)o2)C1)C(F)(F)F (mixture of isomers) [Example 146, [1-(5-Cyclopropyl-[1,3,4]oxadiazol-2-yl)-3-aza-bicyclo[3.1.0]hex-3-yl]-[5-methanesulfonyl-2-(2,2,2-trifluoro-1-methyl-ethoxy)-phenyl]-methanone]
18	C[C@H](Oc1ccc(S(C)(=O)=O)cc1C(=O)N1CC2CC2(c2nnc(C3CC3)o2)C1)C(F)(F)F (mixture of isomers) [Example 147, [1-(5-Cyclopropyl-[1,3,4]oxadiazol-2-yl)-3-aza-bicyclo[3.1.0]hex-3-yl]-[5-methanesulfonyl-2-(2,2,2-trifluoro-1-methyl-ethoxy)-phenyl]-methanone]
9	C[C@@H](Oc1ccc(S(C)(=O)=O)cc1C(=O)N1CC2CC2(c2nnc(C3(C(F)(F)F)CC3)o2)C1)C(F)(F)F (mixture of isomers) [Example 148, [5-Methanesulfonyl-2-(2,2,2-trifluoro-1-methyl-ethoxy)-phenyl]-{1-[5-(1-trifluoromethyl-cyclopropyl)-[1,3,4]oxadiazol-2-yl]-3-aza-bicyclo[3.1.0]hex-3-yl}-methanone]
